{"source": "paper PMC7934871", "about": "(JCI Insight, 2021)", "key": {"B16 melanoma": {"system": "B16 melanoma", "assay": "B16 melanoma lung metastasis in C57BL/6 mice", "type": "in vivo, mouse", "source_text": "Figure 7 PS-acet.-STAT3 peptide treatment efficiently reduces mouse melanoma lung metastasis. (A) Systemic PS-acet.-STAT3 peptide treatment reduces B16 lung nodules in syngeneic mouse model compared with control treatments. The B16 lung nodules in mice treated with the indicated STAT3 peptides and vehicle (n = 5) were visualized by IF staining of gp100 and quantified by confocal microscopy and Zen software. The levels of phosphorylation of STAT3 (p-STAT3), CD69, and Foxp3 in the tumor or tumor-infiltrating CD8^+ T or CD4^+ T cells were detected by IF staining followed by confocal microscopy in B16 metastatic lung nodules upon treatments with vehicle, PO- or PS-acet.-STAT3, PS-STAT3-K685R, or PS-unacet.-STAT3 peptides as indicated. Images are representative of 5 lungs per experimental group. Scale bars: 20 μm (CD69, CD8, CD4, p-STAT3, and Foxp3) and 100 μm (gp100). White arrows indicate the immune cells. Insets: original magnification, ×40. (B) The graphs show the quantification of gp100 and p-STAT3 expression levels (MFI) or the cell population (%) of CD69^+ in CD8^+ or p-STAT3^+ in CD4^+ or Foxp3^+ in CD4^+ (data represent 5 lungs per group, n = 5). SD is shown. One-way ANOVA; ****P < 0.001.\nMouse care and experimental procedures were performed under pathogen-free conditions in accordance with established institutional guidance and approved IACUC protocols from Research Animal Care Committee of the City of Hope. For s.c. tumor challenge, 5 × 10^6 HCT116 cells were injected into NSG mice from The Jackson Laboratory or animal resource core facility at the City of Hope. After tumors reached an average size of 80~100 mm^3, mice were locally or intravenously treated with 1 mg/kg of PO- or PS-peptides (Anaspec) every day or every other day. Control animals were treated with the equal volume of HBSS (Invitrogen, Thermo Fisher Scientific). Tumor growth was measured by a digital caliper every other day. To study the effects of the modified peptides at protein and gene levels, mice were euthanized 4–6 weeks after tumor injection. B16 melanoma lung metastasis was performed by injecting 0.5 × 10^6 B16 cells into bloodstream of C57BL/6 mice (The Jackson Laboratory). One day after tumor challenge, mice were treated intravenously (retro-orbitally) with 1 mg/kg of PO- or PS-acet.-STAT3, PS-unacet.-STAT3, or PS-STAT3-K685R peptides every other day until the endpoint as indicated. Control mice were treated with HBSS. Lungs were excised from the mice, and B16 nodules were visualized by gp100 staining. Lungs were then analyzed for immune responses by immunostaining followed by confocal imaging. For mouse PDAC model, 5 × 10^6 KPC mouse cells were mixed with Matrigel and subcutaneously injected into C57BL/6 mice (The Jackson Laboratory). After tumors reached an average size of 80~100 mm^3, mice were intravenously treated with 1 mg/kg of PO- or PS-Gp130, PS-oligo, PS-SC-MYC, PS-MYC. or combined PS-Gp130/PS-MYC (0.5 mg/kg, 0.5 mg/kg) (Anaspec) every other day for 18 days. Control animals were treated with the equal volume of HBSS (Invitrogen, Thermo Fisher Scientific). Tumor growth was measured by a digital caliper every other day. To study the effects of the modified peptides at protein and gene levels, mice were euthanized at the endpoint as indicated."}, "HCT116 xenograft tumors": {"system": "HCT116 xenograft tumors", "assay": "HCT116 xenograft in NSG mice, peritumoral treatment", "type": "in vivo, mouse", "details": "HCT116 s.c. in NSG mice, 1 mg/kg peritumoral every day, n = 4", "description": "Mouse care and experimental procedures were performed under pathogen-free conditions in accordance with established institutional guidance and approved IACUC protocols from Research Animal Care Committee of the City of Hope. For s.c. tumor challenge, 5 × 10^6 HCT116 cells were injected into NSG mice from The Jackson Laboratory or animal resource core facility at the City of Hope. After tumors reached an average size of 80~100 mm^3, mice were locally or intravenously treated with 1 mg/kg of PO- or PS-peptides (Anaspec) every day or every other day. Control animals were treated with the equal volume of HBSS (Invitrogen, Thermo Fisher Scientific). Tumor growth was measured by a digital caliper every other day. […] Lungs were then analyzed for immune responses by immunostaining followed by confocal imaging. […] Tumor growth was measured by a digital caliper every other day. […]\n(B) PS-acet.-STAT3 peptide downregulates STAT3 phosphorylation, assessed by Western blotting using tumor homogenates prepared from tumors shown in A.\n(C) mRNA levels for CASP9, BIRC5 and BCL2L1 in the same tumor tissues described above were assessed by qRT-PCR. […]\n(D) Treatments with PS-acet.-STAT3 peptide induced cell death, indicated by H&E staining (upper panel). […] Right panels represent quantification of Ki-67 protein levels and mean of vessel diameter (data include 5 fields of view per group). […]"}}, "data": [{"substance": "PDIPKEEAFGK685(Ac)YCRPESQEHPC-linker-T*C*C*A*T*G*A*G*C*T*T*C*C*T*G*A*T*G*C*T [PS-acet.-STAT3 peptide]", "values": [{"measurement": "metastatic lung nodules", "setting": "B16 melanoma; B16 i.v. in C57BL/6 mice, 1 mg/kg i.v. every other day, gp100 staining, n = 5", "result": "striking reduction"}, {"measurement": "STAT3 activation (p-STAT3) in tumor cells and CD4+ T cells", "setting": "B16 melanoma; B16 lung nodules, IF staining, confocal", "result": "significantly decreased"}, {"measurement": "infiltration of CD69+ activated CD8+ T cells in metastatic B16 lung nodules", "setting": "B16 melanoma; IF staining, confocal", "result": "increased"}, {"measurement": "tumor-associated FoxP3+CD4+ T cells (regulatory T cells)", "setting": "B16 melanoma; IF staining, confocal", "result": "concomitantly reduced"}, {"measurement": "tumor growth", "setting": "HCT116 xenograft tumors", "result": "antitumor effects"}]}]}
